# Patent US9890149B2 (NuBridge BioSciences, priority 2015, dated 2018)
# Counter-ions that a name gives are not always drawn.
# Target: T1, ΔF508 mutant CFTR (Homo sapiens, UniProt P13569, DEL508-508)
# T1 construct: expressed in transfected cells; host or cells: Fischer rat thyroid (FRT) cells
# Experiment: Fluorescence Assay (halide-sensitive YFP, iodide influx) for ΔF508 mutant CFTR activity
# Format: cell-based
# Conditions: FRT cells expressing ΔF508-CFTR and YFP-H148Q/I152L, incubated 27° C. 20-24 h; forskolin (20 μM) and test compounds (20 μM) for 20 min; rate of fluorescence quenching by I−, normalized to forskolin alone
# Text: The ΔF508 mutant CFTR activities of the CFTR modulators are detected using the Fluorescence Assay developed by Pedemonte (Pedemonte N., et al., Antihypertensive 1,4-dihydropyridines as correctors of the cystic fibrosis transmembrane conductance regulator channel gating defect caused by cystic fibrosis mutations, Mol. Pharmacol., 2005, 68, 1736-1746).
# Fischer rat thyroid (FRT) cells, stably transfected with ΔF508 were retransfected with the YFP-H148Q/I152L fluorescent protein. The cells were plated (100,000 cells/well) on black 96-well microplates with clear plastic bottom (Corning Life Sciences, Acton, Mass.).
# The 96-well microplates containing FRT cells expressing F508-CFTR and the halide-sensitive YFP were incubated at 27° C. for 20 to 24 h to allow rescue of the mutant protein to the plasma membrane. After incubation, cells were washed with PBS (containing 137 mM NaCl, 2.7 mM KCl, 8.1 mM Na2HPO4, 1.5 mM KH2PO4, 1 mM CaCl2, and 0.5 mM MgCl2) and stimulated for 20 min with forskolin (20 μM) and test compounds (20 μM) in a final volume of […] Microplates were then transferred to a microplate reader for CFTR activity determination.
# T1 sequence (P13569 with tags, fused parts or gaps DEL508-508): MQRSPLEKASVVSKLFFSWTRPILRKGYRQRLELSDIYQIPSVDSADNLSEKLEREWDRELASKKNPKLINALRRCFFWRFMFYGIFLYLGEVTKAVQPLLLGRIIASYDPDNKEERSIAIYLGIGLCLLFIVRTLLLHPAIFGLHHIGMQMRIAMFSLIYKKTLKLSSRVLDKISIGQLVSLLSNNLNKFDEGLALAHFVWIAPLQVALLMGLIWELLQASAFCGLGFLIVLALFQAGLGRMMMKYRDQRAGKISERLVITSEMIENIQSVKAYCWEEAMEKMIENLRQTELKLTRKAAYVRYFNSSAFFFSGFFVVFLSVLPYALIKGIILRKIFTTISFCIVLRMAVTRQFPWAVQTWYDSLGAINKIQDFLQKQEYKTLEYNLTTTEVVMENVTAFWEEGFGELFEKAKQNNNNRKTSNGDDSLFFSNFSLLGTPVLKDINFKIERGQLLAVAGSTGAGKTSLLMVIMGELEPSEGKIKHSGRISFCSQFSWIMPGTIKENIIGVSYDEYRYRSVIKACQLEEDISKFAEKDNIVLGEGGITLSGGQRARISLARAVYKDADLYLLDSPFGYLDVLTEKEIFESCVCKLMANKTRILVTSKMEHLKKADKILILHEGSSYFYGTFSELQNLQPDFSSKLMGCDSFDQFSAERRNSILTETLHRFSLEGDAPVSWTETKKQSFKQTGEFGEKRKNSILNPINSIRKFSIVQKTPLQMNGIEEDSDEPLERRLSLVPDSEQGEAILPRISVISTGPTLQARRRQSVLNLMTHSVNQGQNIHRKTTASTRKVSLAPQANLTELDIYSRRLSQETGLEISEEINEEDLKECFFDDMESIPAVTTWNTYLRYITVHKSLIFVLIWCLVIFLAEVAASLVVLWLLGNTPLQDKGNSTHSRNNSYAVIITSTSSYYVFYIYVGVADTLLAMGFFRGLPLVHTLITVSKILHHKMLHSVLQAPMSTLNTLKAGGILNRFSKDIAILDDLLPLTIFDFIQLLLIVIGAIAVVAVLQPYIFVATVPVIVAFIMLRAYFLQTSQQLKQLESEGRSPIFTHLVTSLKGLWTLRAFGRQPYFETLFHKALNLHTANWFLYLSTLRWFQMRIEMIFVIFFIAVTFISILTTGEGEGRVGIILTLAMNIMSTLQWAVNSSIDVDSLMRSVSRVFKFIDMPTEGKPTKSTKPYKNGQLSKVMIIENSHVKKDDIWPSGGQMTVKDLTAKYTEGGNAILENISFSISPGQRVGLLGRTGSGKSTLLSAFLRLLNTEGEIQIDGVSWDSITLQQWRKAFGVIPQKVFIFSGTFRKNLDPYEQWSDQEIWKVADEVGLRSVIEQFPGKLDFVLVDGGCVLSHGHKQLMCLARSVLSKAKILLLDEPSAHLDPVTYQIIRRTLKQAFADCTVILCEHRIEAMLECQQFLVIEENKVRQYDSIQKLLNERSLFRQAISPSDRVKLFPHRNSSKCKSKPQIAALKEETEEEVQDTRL
row,CFTR Activity,Structure (SMILES)
1,1.6,"Cl.NCC(CCl)Oc1sncc1NC(=O)c1nc(-c2c(F)cccc2F)c(F)cc1N (stereo not shown) [Example 33, 3-amino-N-(5-((1-amino-3-chloropropan-2-yl)oxy)isothiazol-4-yl)-6-(2,6-difluorophenyl)-5-fluoropicolinamide hydrochloride]"
2,1.7,"Cl.O=C(Nc1cnsc1OC1CCNCC1)c1ccc(C(F)(F)F)c(-c2c(F)cccc2F)n1 [Example 45, 6-(2,6-difluorophenyl)-N-(5-(piperidin-4-yloxy)isothiazol-4-yl)-5-(trifluoromethyl)picolinamide hydrochloride]"
3,1.4,"NCC(CCl)Oc1sncc1NC(=O)c1ccc(F)c(-c2c(F)cccc2F)n1 (stereo not shown) [Example 29, N-(5-((1-amino-3-chloropropan-2-yl)oxy)isothiazol-4-yl)-6-(2,6-difluorophenyl)-5-fluoropicolinamide hydrochloride]"
4,1.1,"Cl.NC1CCCC(Oc2sncc2NC(=O)c2ccc(F)c(-c3c(F)cccc3F)n2)C1 (stereo not shown) [Example 11, N-(5-((3-aminocyclohexyl)oxy)isothiazol-4-yl)-6-(2,6-difluorophenyl)-5-fluoropicolinamide hydrochloride]"
5,0.1,"Cl.NC1CCCC(Oc2sncc2NC(=O)c2ccc(C(F)(F)F)c(-c3c(F)cccc3F)n2)C1 (stereo not shown) [Example 60, N-(5-((3-aminocyclohexyl)oxy)isothiazol-4-yl)-6-(2,6-difluorophenyl)-5-(trifluoromethyl)picolinamide hydrochloride]"
6,0.1,"CC(C)(O)CCCOc1sncc1NC(=O)c1ccc(F)c(-c2c(F)cccc2F)n1 [Example 20, 6-(2,6-difluorophenyl)-5-fluoro-N-(5-((4-hydroxy-4-methylpentyl)oxy)isothiazol-4-yl)picolinamide]"
7,1.8,"Cl.NCC(CO)COc1sncc1NC(=O)c1nc(-c2c(F)cccc2F)c(F)cc1N (stereo not shown) [Example 57, 3-amino-N-(5-(3-amino-2-(hydroxymethyl)propoxy)isothiazol-4-yl)-6-(2,6-difluorophenyl)-5-fluoropicolinamide hydrochloride]"
8,0.5,"CNCCCOc1sncc1NC(=O)c1ccc(F)c(-c2c(F)cccc2F)n1.Cl [Example 13, 6-(2,6-difluorophenyl)-5-fluoro-N-(5-(3-(methylamino)propoxy)isothiazol-4-yl)picolinamide hydrochloride]"
9,2.3,"Cl.NCC(CO)COc1sncc1NC(=O)c1nc(-c2c(F)cccc2F)c(C(F)(F)F)cc1N (stereo not shown) [Example 59, 3-amino-N-(5-(3-amino-2-(hydroxymethyl)propoxy)isothiazol-4-yl)-6-(2,6-difluorophenyl)-5-(trifluoromethyl)picolinamide hydrochloride]"
10,0.9,"Cl.O=C(Nc1cnsc1OCC1CCNCC1)c1ccc(F)c(-c2c(F)cccc2F)n1 [Example 1, 6-(2,6-difluorophenyl)-5-fluoro-N-(5-(piperidin-4-ylmethoxy)isothiazol-4-yl)picolinamide hydrochloride]"
11,0.5,"Cl.O=C(Nc1cnsc1OC1CCCNC1)c1ccc(F)c(-c2c(F)cccc2F)n1 (stereo not shown) [Example 5, 6-(2,6-difluorophenyl)-5-fluoro-N-(5-(piperidin-3-yloxy)isothiazol-4-yl)picolinamide hydrochloride]"
12,1.4,"Cl.O=C(Nc1cnsc1OC1CCCNCC1)c1nc(-c2c(F)cccc2F)ccc1F (stereo not shown) [Example 40, N-(5-(azepan-4-yloxy)isothiazol-4-yl)-6-(2,6-difluorophenyl)-3-fluoropicolinamide hydrochloride]"
13,1.4,"Cl.NCC(CCl)COc1sncc1NC(=O)c1ccc(F)c(-c2c(F)cccc2F)n1 (stereo not shown) [Example 30, N-(5-(3-amino-2-(chloromethyl)propoxy)isothiazol-4-yl)-6-(2,6-difluorophenyl)-5-fluoropicolinamide hydrochloride]"
14,0.1,"Cl.Nc1cc(F)c(-c2c(F)cccc2F)nc1C(=O)Nc1cnsc1OC1CNC1 [Example 31, 3-amino-N-(5-(azetidin-3-yloxy)isothiazol-4-yl)-6-(2,6-difluorophenyl)-5-fluoropicolinamide hydrochloride]"
15,2.5,"Cl.Nc1cc(F)c(-c2c(F)cccc2F)nc1C(=O)Nc1cnsc1OC1CCNCC1 [Example 25, 3-amino-6-(2,6-difluorophenyl)-5-fluoro-N-(5-(piperidin-4-yloxy)isothiazol-4-yl)picolinamide hydrochloride]"
16,0.7,"Cl.Nc1cc(C(F)(F)F)c(-c2c(F)cccc2F)nc1C(=O)Nc1cnsc1OC1CCNCC1 [Example 51, 3-amino-6-(2,6-difluorophenyl)-N-(5-(piperidin-4-yloxy)isothiazol-4-yl)-5-(trifluoromethyl)picolinamide hydrochloride]"
17,1,"Cl.N[C@H]1CC[C@H](Oc2sncc2NC(=O)c2ccc(F)c(-c3c(F)cccc3F)n2)CC1 [Example 10, N-(5-(((1r,4r)-4-aminocyclohexyl)oxy)isothiazol-4-yl)-6-(2,6-difluorophenyl)-5-fluoropicolinamide hydrochloride]"
18,1.4,"Cl.O=C(Nc1cnsc1OC1CCCNCC1)c1ccc(F)c(-c2c(F)cccc2F)n1 (stereo not shown) [Example 6, N-(5-(azepan-4-yloxy)isothiazol-4-yl)-6-(2,6-difluorophenyl)-5-fluoropicolinamide hydrochloride]"
19,0.7,"Cl.Nc1cc(C(F)(F)F)c(-c2c(F)cccc2F)nc1C(=O)Nc1cnsc1OC1CCCNCC1 (stereo not shown) [Example 48, 3-amino-N-(5-(azepan-4-yloxy)isothiazol-4-yl)-6-(2,6-difluorophenyl)-5-(trifluoromethyl)picolinamide hydrochloride]"
20,0.5,"Cl.NCC(CO)COc1sncc1NC(=O)c1ccc(F)c(-c2c(F)cccc2F)n1 (stereo not shown) [Example 56, N-(5-(3-amino-2-(hydroxymethyl)propoxy)isothiazol-4-yl)-6-(2,6-difluorophenyl)-5-fluoropicolinamide hydrochloride]"
21,0.3,"O=C(Nc1cnsc1OCC1CCOCC1)c1ccc(F)c(-c2c(F)cccc2F)n1 [Example 22, 6-(2,6-difluorophenyl)-5-fluoro-N-(5-((tetrahydro-2H-pyran-4-yl)methoxy)isothiazol-4-yl)picolinamide]"
22,1.6,"Cl.NCC(CCl)COc1sncc1NC(=O)c1nc(-c2c(F)cccc2F)c(F)cc1N (stereo not shown) [Example 34, 3-amino-N-(5-(3-amino-2-(chloromethyl)propoxy)isothiazol-4-yl)-6-(2,6-difluorophenyl)-5-fluoropicolinamide hydrochloride]"
23,0.6,O=C(Nc1cnsc1OCC1CCOCC1)c1ccc(C(F)(F)F)c(-c2c(F)cccc2F)n1 [Example 47]
24,0.5,"Cl.NCC(CCl)COc1sncc1NC(=O)c1ccc(C(F)(F)F)c(-c2c(F)cccc2F)n1 (stereo not shown) [Example 54, N-(5-(3-amino-2-(chloromethyl)propoxy)isothiazol-4-yl)-6-(2,6-difluorophenyl)-5-(trifluoromethyl)picolinamide hydrochloride]"
25,2,"Cl.NCC(CO)COc1sncc1NC(=O)c1ccc(C(F)(F)F)c(-c2c(F)cccc2F)n1 (stereo not shown) [Example 58, N-(5-(3-amino-2-(hydroxymethyl)propoxy)isothiazol-4-yl)-6-(2,6-difluorophenyl)-5-(trifluoromethyl)picolinamide hydrochloride]"
26,0.5,"Cl.NCC(CCl)COc1sncc1NC(=O)c1nc(-c2c(F)cccc2F)c(C(F)(F)F)cc1N (stereo not shown) [Example 55, 3-amino-N-(5-(3-amino-2-(chloromethyl)propoxy)isothiazol-4-yl)-6-(2,6-difluorophenyl)-5-(trifluoromethyl)picolinamide hydrochloride]"
27,0.3,"Cl.O=C(Nc1cnsc1OCC1CNC1)c1ccc(C(F)(F)F)c(-c2c(F)cccc2F)n1 [Example 44, N-(5-(azetidin-3-ylmethoxy)isothiazol-4-yl)-6-(2,6-difluorophenyl)-5-(trifluoromethyl)picolinamide hydrochloride]"
28,2.9,"Cl.Nc1cc(F)c(-c2c(F)cccc2F)nc1C(=O)Nc1cnsc1OC1CCCC(N)C1 (stereo not shown) [Example 37, 3-amino-N-(5-((3-aminocyclohexyl)oxy)isothiazol-4-yl)-6-(2,6-difluorophenyl)-5-fluoropicolinamide hydrochloride]"
29,0.7,"Cl.NCCCOc1sncc1NC(=O)c1ccc(F)c(-c2c(F)cccc2F)n1 [Example 12, N-(5-(3-aminopropoxy)isothiazol-4-yl)-6-(2,6-difluorophenyl)-5-fluoropicolinamide hydrochloride]"

row,Structure (SMILES),CFTR Activity
1,"Cl.NCCCCOc1sncc1NC(=O)c1nc(-c2c(F)cccc2F)c(F)cc1N [Example 36, 3-amino-N-(5-(4-aminobutoxy)isothiazol-4-yl)-6-(2,6-difluorophenyl)-5-fluoropicolinamide hydrochloride]",1.8
2,"O=C(Nc1cnsc1OCCC(O)CO)c1ccc(F)c(-c2c(F)cccc2F)n1 (stereo not shown) [Example 21, 6-(2,6-difluorophenyl)-N-(5-(3,4-dihydroxybutoxy)isothiazol-4-yl)-5-fluoropicolinamide]",0.5
